Values of other authors as cited in US20100179144A1, “QUINAZOLINE DERIVATIVES AS P13 KINASE INHIBITORS” (priority 2007, published 2010).

Tested on: Class I PI3-kinases
Conditions: about; Fruman et al. 1998; read-out: IC50 against each of these PI3-kinases

For `O=c1cc(N2CCOCC2)oc2c(-c3ccccc3)cccc12` [LY294002], the IC50 is listed as 15 to 20 µM.
